In series [1] the target is T1, OATP-1B3 (Homo sapiens, UniProt Q9NPD5).
T1 sequence (Q9NPD5 1-702): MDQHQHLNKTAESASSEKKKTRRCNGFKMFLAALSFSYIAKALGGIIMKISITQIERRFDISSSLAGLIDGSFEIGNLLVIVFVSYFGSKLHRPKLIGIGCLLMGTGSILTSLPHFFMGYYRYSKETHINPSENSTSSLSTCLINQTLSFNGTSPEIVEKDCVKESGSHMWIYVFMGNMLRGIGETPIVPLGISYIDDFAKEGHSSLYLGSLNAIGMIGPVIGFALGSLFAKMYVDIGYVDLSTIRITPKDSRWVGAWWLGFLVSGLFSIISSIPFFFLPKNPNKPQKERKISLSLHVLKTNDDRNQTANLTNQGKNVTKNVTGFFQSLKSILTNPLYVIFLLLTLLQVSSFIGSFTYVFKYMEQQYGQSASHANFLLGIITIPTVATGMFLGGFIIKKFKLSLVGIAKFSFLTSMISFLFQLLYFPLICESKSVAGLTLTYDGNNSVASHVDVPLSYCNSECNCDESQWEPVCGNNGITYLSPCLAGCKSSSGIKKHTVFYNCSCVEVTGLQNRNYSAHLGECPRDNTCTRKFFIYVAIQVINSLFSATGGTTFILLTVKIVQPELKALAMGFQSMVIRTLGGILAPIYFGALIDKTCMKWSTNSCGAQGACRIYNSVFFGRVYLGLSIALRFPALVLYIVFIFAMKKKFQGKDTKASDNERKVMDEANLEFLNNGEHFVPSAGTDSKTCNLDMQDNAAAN
Put plainly: Inhibition of [3H]CCK-8 cellular accumulation in OATP-1B3 transfected CHO cells. It is filed as cell-based. To be noted: for Inhibition of cellular accumulation of [3H]CCK-8 (in words): 25 and 50 μM, OATP-1B3 transfected cells; for Inhibition in net uptake rate of [3H]CCK-8 in OATP-1B3 cells (in words): increasing concentrations 0.1-100 μM.

In series [2] the test system is OATP-1B3 transfected CHO cells. It is filed as cell-based, Chinese hamster.
Series [3] concerns OATP-1B1 transfected CHO cells.
Series [4] deals with T2, OATP-1B1 (Homo sapiens, UniProt Q9Y6L6).
T2 sequence (Q9Y6L6 1-691): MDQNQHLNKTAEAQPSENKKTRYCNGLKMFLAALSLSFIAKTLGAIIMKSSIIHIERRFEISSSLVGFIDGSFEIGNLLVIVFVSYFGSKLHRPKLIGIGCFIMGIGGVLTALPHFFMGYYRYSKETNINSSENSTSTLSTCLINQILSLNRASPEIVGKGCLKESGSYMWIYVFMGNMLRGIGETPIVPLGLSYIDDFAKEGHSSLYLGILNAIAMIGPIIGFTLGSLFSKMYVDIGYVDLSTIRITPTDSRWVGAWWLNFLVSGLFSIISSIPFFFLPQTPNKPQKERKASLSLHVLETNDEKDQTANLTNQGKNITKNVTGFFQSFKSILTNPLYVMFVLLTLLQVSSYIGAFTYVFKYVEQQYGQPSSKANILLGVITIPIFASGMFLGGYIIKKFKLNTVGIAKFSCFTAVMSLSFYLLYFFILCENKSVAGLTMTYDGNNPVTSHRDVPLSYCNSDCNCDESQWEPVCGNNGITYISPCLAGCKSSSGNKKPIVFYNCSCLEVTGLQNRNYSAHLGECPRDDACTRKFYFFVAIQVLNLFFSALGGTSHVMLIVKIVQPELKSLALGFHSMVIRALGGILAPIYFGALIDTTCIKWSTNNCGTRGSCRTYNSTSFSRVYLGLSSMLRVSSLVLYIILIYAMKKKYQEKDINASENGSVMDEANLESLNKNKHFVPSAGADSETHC
Particulars: for Inhibition of cellular accumulation of [3H]ES (in words) / Diminished uptake of [3H]ES: 25 and 50 μM; for Diminished uptake of [3H]ES: p < 0.05.

Series [5] relates to OATP-1B1. To be noted: 10 μM, Flp-In T-Rex293 cells expressing OATP-1B1; ref Hu et al. [24]; cited from earlier work.
For series [6] the following is noted: coadministration of pazopanib; ref Tan et al. [41]; cited from earlier work.
The conditions of series [7]: coadministration together with CsA; ref [16], [34], [35]; cited from earlier work.
[8] abbreviates: 100 μM, 24 h, OATP-1B3 transfected cells, relative to positive control Triton X.
[9] abbreviates: 100 μM, 24 h, OATP-1B1 transfected cells, relative to positive control Triton X.

Where two headings read alike, the source gives them in different places.

As to `C=CC(=O)Nc1cc2c(Nc3ccc(F)c(Cl)c3)ncnc2cc1OCCCN1CCOCC1` [Canertinib, canertinib], the “Inhibition of cellular accumulation of [3H]CCK-8 (in words)” value (from here on “Inhibition … [3H]CCK-8 (in words)”) in series [1] is “did not show any significant effect”. The “Inhibition in net uptake rate of [3H]CCK-8 in OATP-1B3 cells (in words)” value (“Inhibition in net uptake rate” below) in series [1] is on record as “no significant inhibition”. Further, the Cytotoxic effect entry in series [2] (setting [8]) and in series [3] (setting [9]) was “No cytotoxic effects” throughout. Also, the “Inhibition of cellular accumulation of [3H]ES (in words)” value (from here on “Inhibition … [3H]ES (in words)”) in series [4] (OATP-1B1 transfected cells) is given as “did not show any significant inhibitory activity”.

Consider `C#Cc1cccc(Nc2ncnc3cc(OCCOC)c(OCCOC)cc23)c1` [Erlotinib, erlotinib], for which, in series [1], the “Inhibition … [3H]CCK-8 (in words)” value is on record as “did not show any significant effect” and the “Inhibition in net uptake rate” value was “no significant inhibition”. Moreover, the Cytotoxic effect entry in series [2] (setting [8]) is “No cytotoxic effects”. For the same compound, in series [3] (setting [9]), the Cytotoxic effect result is listed as “No cytotoxic effects”. The “Inhibition of OATP-1B1 (in words)” value in series [5] is on record as “inhibitory activity”. Besides, the “Inhibition … [3H]ES (in words)” value in series [4] (OATP-1B1 transfected cells) is reported as “did not show any significant inhibitory activity”.

Regarding `Cc1cn(-c2cc(NC(=O)c3ccc(C)c(Nc4nccc(-c5cccnc5)n4)c3)cc(C(F)(F)F)c2)cn1` [Nilotinib, nilotinib], in series [1], the “Inhibition … [3H]CCK-8 (in words)” value was “did not show any significant effect” and the “Inhibition in net uptake rate” value is on record as “no significant inhibition”. Besides, the Cytotoxic effect result in series [2] (setting [8]) was “No cytotoxic effects”. Besides, the Cytotoxic effect result in series [3] (setting [9]) was “No cytotoxic effects”. For the same compound, the “Inhibition of OATP-1B1 (in words)” value in series [5] is reported as “inhibitory potency”. For the same compound, in series [4] (OATP-1B1 transfected cells), the “Inhibition … [3H]ES (in words)” value is on record as “significant inhibition” and the “Diminished uptake of [3H]ES” value is on record as roughly 90%.

Regarding `Cc1ccc(Nc2nccc(N(C)c3ccc4c(C)n(C)nc4c3)n2)cc1S(N)(=O)=O` [Pazopanib], in series [1], the “Inhibition … [3H]CCK-8 (in words)” value is on record as “did not show any significant effect” and the “Inhibition in net uptake rate” value is recorded as “no significant inhibition”. For the same compound, the Cytotoxic effect result in series [2] is “No cytotoxic effects”. In addition, the Cytotoxic effect entry in series [3] is recorded as “No cytotoxic effects”. The “Inhibition of OATP-1B1 (in words)” value in series [5] is “inhibitory potency”. Further, in series [4], the IC50 (as a rule, the concentration that inhibits the measured activity by half) was 3.89 ± 1.21 µM. For the same compound, in series [4] (OATP-1B1 transfected cells), the “Inhibition … [3H]ES (in words)” value is recorded as “significant inhibition” and the “Diminished uptake of [3H]ES” value is roughly 90%.

Consider `CO[C@H]1/C=C/O[C@@]2(C)Oc3c(C)c(O)c4c(O)c(c(/C=N/N5CCN(C)CC5)c(O)c4c3C2=O)NC(=O)/C(C)=C\C=C\[C@H](C)[C@H](O)[C@@H](C)[C@@H](O)[C@@H](C)[C@H](OC(C)=O)[C@@H]1C` [Rifampicin], for which the IC50 in series [1] was determined as 3.67 ± 1.2 µM; in series [4] it was 10.5 ± 1.15 µM. The “Reduced uptake of [3H]ES” value in series [4] (50 μM, OATP-1B1 transfected cells) stood at 70%.

As for `COc1cc2c(Nc3ccc(Br)cc3F)ncnc2cc1OCC1CCN(C)CC1` [Vandetanib, vandetanib], in series [1], the concentration for half-maximal inhibition (IC50) was found to be 18.1 ± 1.21 µM and the “Inhibition … [3H]CCK-8 (in words)” value is reported as “significant inhibition”. Besides, the Cytotoxic effect result in series [2] was “No cytotoxic effects”. Besides, the Cytotoxic effect result in series [3] is given as “No cytotoxic effects”. Also, the “Inhibition of OATP-1B1 (in words)” value in series [5] is “inhibitory activity”. The “Inhibition … [3H]ES (in words)” value in series [4] (OATP-1B1 transfected cells) was “did not show any significant inhibitory activity”.

`CC(=O)O[C@H]1C(=O)[C@@]2(C)[C@H]([C@H](OC(=O)c3ccccc3)[C@]3(O)C[C@H](OC(=O)[C@H](O)[C@@H](NC(=O)c4ccccc4)c4ccccc4)C(C)=C1C3(C)C)[C@]1(OC(C)=O)CO[C@@H]1C[C@@H]2O` [paclitaxel]: the Lower paclitaxel clearance in series [6] is listed as 14%.

Take `CC[C@H](C)C(=O)O[C@H]1C[C@H](O)C=C2C=C[C@H](C)[C@H](CC[C@@H](O)C[C@@H](O)CC(=O)O)[C@H]21` [pravastatin]: the “Increased AUC of statin” value in series [7] is on record as 9.93 fold.

`CC(C)c1nc(N(C)S(C)(=O)=O)nc(-c2ccc(F)cc2)c1/C=C/[C@@H](O)C[C@@H](O)CC(=O)O` [rosuvastatin]: in series [7], the “Increased AUC of statin” value was 7.08 fold.

(Values after PMC4407688 (Drug metabolism and drug interactions, 2014).)
